In publication PMC6035379 (Journal of Ginseng Research, 2017):
Structures can show the parent of a compound that is named as a salt.

How the values were obtained:
[1] = tested on: CYP1A1; conditions: HepG2 cells; cited from earlier work
[2] = tested on: P-gp; conditions: cited from earlier work
[3] = tested on: CYP2C9; conditions: cited from earlier work
[4] = tested on: CYP2C19; conditions: cited from earlier work
[5] = tested on: CYP3A4; conditions: cited from earlier work
[6] = tested on: CYP2D6; conditions: cited from earlier work
[7] = tested on: drug-resistant KBV cells; conditions: cited from earlier work
[8] = type: in vivo; conditions: rats; fexofenadine 10 mg/kg oral; control group without KRG

## CC(C)=CCC[C@](C)(O[C@@H]1O[C@H](CO[C@@H]2OC[C@H](O)[C@H](O)[C@H]2O)[C@@H](O)[C@H](O)[C@H]1O)[C@H]1CC[C@]2(C)[C@@H]1[C@H](O)C[C@@H]1[C@@]3(C)CC[C@H](O[C@@H]4O[C@H](CO)[C@@H](O)[C@H](O)[C@H]4O[C@@H]4O[C@H](CO)[C@@H](O)[C@H](O)[C@H]4O)C(C)(C)[C@@H]3CC[C@]12C [ginsenoside Rb2]
[1]
  mRNA level of CYP1A1: significantly increased

## Cc1ncc2n1-c1ccc(Cl)cc1C(c1ccccc1F)=NC2 [midazolam]
[2]
  transport by P-gp: not transported

## CC(C)=CCC[C@](C)(O[C@@H]1O[C@H](CO)[C@@H](O)[C@H](O)[C@H]1O)[C@H]1CC[C@]2(C)[C@@H]1[C@H](O)C[C@@H]1[C@@]3(C)CC[C@H](O[C@@H]4O[C@H](CO)[C@@H](O)[C@H](O)[C@H]4O[C@@H]4O[C@H](CO)[C@@H](O)[C@H](O)[C@H]4O)C(C)(C)[C@@H]3CC[C@]12C [ginsenoside Rd]
[3]
  inhibition of CYP2C9: weak inhibition
[4]
  inhibition of CYP2C19: weak inhibition
[5]
  inhibition of CYP3A4: weak inhibition
[6]
  inhibition of CYP2D6: weak inhibition

## CC(C)=CCC[C@](C)(O)[C@H]1CC[C@]2(C)[C@@H]1[C@H](O)C[C@@H]1[C@@]3(C)CC[C@H](O[C@@H]4O[C@H](CO)[C@@H](O)[C@H](O)[C@H]4O[C@@H]4O[C@H](CO)[C@@H](O)[C@H](O)[C@H]4O)C(C)(C)[C@@H]3CC[C@]12C [ginsenoside Rg3]
[7]
  (3H) vinblastine efflux: inhibited

## CC(C)=CCC[C@](C)(O[C@@H]1O[C@H](CO)[C@@H](O)[C@H](O)[C@H]1O)[C@H]1CC[C@]2(C)[C@@H]1[C@H](O)C[C@@H]1[C@@]3(C)CC[C@H](O)C(C)(C)[C@@H]3[C@@H](O[C@@H]3O[C@H](CO)[C@@H](O)[C@H](O)[C@H]3O)C[C@]12C [ginsenoside Rg1]
[1]
  mRNA level of CYP1A1: significantly increased

## CC(C)(C(=O)O)c1ccc(C(O)CCCN2CCC(C(O)(c3ccccc3)c3ccccc3)CC2)cc1 (stereo not drawn) [fexofenadine, Fexofenadine hydrochloride]
[8]
  mean maximum concentration of fexofenadine: 32 ng/mL
